From patent publication US11557737B2, “Compound, coating composition comprising same, organic light-emitting element using same, and manufacturing method therefor” (LG Chem, Ltd., priority 2018, dated 2023)

Experiment: Solubility measurement (compound dissolved in solvent, left 1 day, precipitate checked by Tyndall effect)
Assay type: physicochemical
Details: dissolved in a solvent, left to stand for 1 day, laser / Tyndall effect
Experimental: In the present specification, the “solubility” means a property in which a solute is dissolved in a specific solvent, and may be denoted as a g value of the solute that may be dissolved in 100 g of the solvent at a predetermined temperature.
The method of measuring the solubility is as follows. First, after a compound was dissolved in a solvent, the resulting solution was left to stand for 1 day. Thereafter, by passing a laser through the solution, it was observed whether a precipitate was formed through the Tyndall effect, and the solubility was measured.

Row | SMILES | Solubility [wt %]
1 | c1ccc([Si](c2ccccc2)(c2ccccc2)c2ccc(-c3ccc(N(c4ccc(-c5cccc6c5oc5ccccc56)cc4)c4cc5ccc6cccc7ccc(c4)c5c67)cc3)cc2)cc1 [Compound E] | 2
2 | C[Si](C)(C)c1ccc(N(c2ccccc2)c2ccc3ccc4c(N(c5ccccc5)c5ccc([Si](C)(C)C)cc5)ccc5ccc2c3c54)cc1 [Compound C] | 0.1
3 | C[Si](C)(C)c1ccc(-c2ccc(N(c3ccc4ccc5c(N(c6ccc(-c7ccc([Si](C)(C)C)cc7)cc6)c6cccc7c6oc6ccccc67)ccc6ccc3c4c65)c3cccc4c3oc3ccccc34)cc2)cc1 [Compound D] | 0.05
4 | c1ccc([Si](c2ccccc2)(c2ccccc2)c2ccc(-c3ccc(N(c4ccc(-c5ccc6c(c5)oc5ccccc56)cc4)c4cc5ccc6cccc7ccc(c4)c5c67)cc3)cc2)cc1 [Compound F] | 2
